Experimental findings from US11078198B2 (BRISTOL-MYERS SQUIBB COMPANY, priority 2017, dated 2021) are described below.

The subject of experiment [1] is Cyp7a1. The experiment can be described thus: Acute mouse in vivo assay, Cyp7a1 gene expression in liver. As to conditions: single oral dose 3 mg/kg, @ 6 h. Here is the method: Acute Mouse In Vivo Assay:
Male, C57BL6/NTac mice, weighing 25-28 g, are purchased from Taconic Labs (Hudson, N.Y.) and maintained on Teklad Global 18% Protein Rodent Diet (Harlan Laboratories). After 1 week acclimation, mice are sorted into groups based upon body weight. Mice are administered a single oral dose of vehicle or experimental compound. Systemic compound exposure is evaluated in plasma derived from blood collected via the submandibular vein at 1 hour post-dose, and at study termination (6 h). At study termination, the animals are euthanized and rapidly dissected. The medial lobe of the liver is divided, with one half being homogenized and analyzed for compound exposure, and the other half saved in RNAlater (Thermo-Fisher Scientific). The ileum is also dissected and preserved in RNAlater. Tissue samples in RNAlater are homogenized with MP Biomedicals' beads. RNA is extracted using the MagMax-96 Total RNA Isolation kit (Thermo-Fisher Scientific) according to the manufacturer's protocol. RNA Concentration is determined with the Nano-Drop 8000 Spectrophotometer (Thermo Fisher). Reverse transcription is done with Invitrogen's SuperScript® VILO cDNA Synthesis Kit according to the manufacturer's protocol. Real time PCR is done with Applied Biosystems' Taqman PCR master mixture according to the manufacturer's protocol. All primers are purchased from Thermo-Fisher Scientific. Mouse genes analyzed include Nr0b2 (which encodes the small heterodimer partner, SHP), Abcb11 (which encodes the bile salt excretion pump, BSEP), Cyp7a1, & Cyp8b1 in liver, and Fgf15, Fabp6 (which encodes ileal bile acid binding protein, I-BABP), Slc51a (which encodes organic solute transporter alpha subunit, OSTA), and Slc51b (which encodes organic solute transporter beta subunit, OSTB) in the ileum. The statistical significant changes in FGF15 gene expression are expressed as fold increase and CYP7A1 expression as a percent reduction relative to vehicle control.

The target in experiment [2] is T1, human FXR (Homo sapiens, UniProt Q96RI1).
T1 construct: expressed in transfected cells; host or cells: HEK293 cells stably carrying a 5xGal4-response-element firefly luciferase reporter, transiently transfected with pcDNA3.1-Gal4-FXR
T1 sequence (Q96RI1 262-486 limits assumed): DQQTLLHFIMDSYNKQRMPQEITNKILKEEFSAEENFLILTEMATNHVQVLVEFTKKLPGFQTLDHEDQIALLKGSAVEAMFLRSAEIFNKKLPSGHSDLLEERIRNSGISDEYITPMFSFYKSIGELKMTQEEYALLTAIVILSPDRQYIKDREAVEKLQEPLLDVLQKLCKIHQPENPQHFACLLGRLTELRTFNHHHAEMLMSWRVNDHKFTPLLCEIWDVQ
The experiment can be described thus: transient human FXR/Gal4-luciferase reporter assay. It counts as cell-based. To be noted: Gal4-hFXR transfected HEK293 reporter cells; relative to 8 μM GW-4064. In short, it runs like this: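 HEK293 cells stably carrying a 5×Gal4-response-element firefly luciferase reporter, transiently transfected overnight with a CMV-driven Gal4 DNA-binding domain/human FXR ligand-binding domain fusion.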
In general terms: In a reporter assay the amount or activity of a reporter protein is the signal.

Consider `O=C(O)c1cc(C(F)(F)F)c2cc(N3CCC4(C=C(c5c(-c6c(Cl)cncc6Cl)noc5C5CC5)C4)CC3)ccc2n1` [Example 85, 6-(2-(5-cyclopropyl-3-(3,5-dichloropyridin-4-yl)isoxazol-4-yl)-7-azaspiro[3.5]non-1-en-7-yl)-4-(trifluoromethyl)quinoline-2-carboxylic acid], for which, in experiment [1], the “Cyp7a1 expression, percent reduction relative to vehicle control” value is given as −94%. Still for that read-out and setting: under `O=C(O)c1ccc2cc(N3CCC4(C=C(c5c(-c6c(Cl)cccc6Cl)noc5C5CC5)C4)CC3)ccc2n1` [Example 20, 6-(2-(5-Cyclopropyl-3-(2,6-dichlorophenyl)isoxazol-4-yl)-7-azaspiro[3.5]non-1-en-7-yl) quinoline-2-carboxylic acid] stands −98%. As a reminder, the EC50 is the concentration giving half of the maximal effect. A higher EC50 goes with a less potent agent. `O=C(O)c1cc(C(F)(F)F)c2cc(N3CCC4(C=C(c5c(-c6cccnc6C(F)(F)F)noc5C5CC5)C4)CC3)ccc2n1` [Example 92, 6-(2-(5-Cyclopropyl-3-(2-(trifluoromethyl)pyridin-3-yl)isoxazol-4-yl)-7-azaspiro[3.5]non-1-en-7-yl)-4-(trifluoromethyl)quinoline-2-carboxylic acid] came in with an EC50 in experiment [2] of 253 nM. In experiment [2], `CC(C)Oc1cc(C(=O)O)nc2ccc(N3CCC4(C=C(c5c(-c6ccccc6C(F)(F)F)noc5C5CC5)C4)CC3)cc12` [Example 104, 6-(2-(5-Cyclopropyl-3-(2-(trifluoromethyl)phenyl)isoxazol-4-yl)-7-azaspiro[3.5]non-1-en-7-yl)-4-isopropoxyquinoline-2-carboxylic acid] displayed an EC50 of 59 nM.

In the case of `COc1cc(C(=O)O)nc2ccc(N3CCC4(C=C(c5c(-c6cnccc6C(F)(F)F)noc5C5CC5)C4)CC3)cc12` [Example 146, 6-(2-(5-Cyclopropyl-3-(4-(trifluoromethyl)pyridin-3-yl)isoxazol-4-yl)-7-azaspiro[3.5]non-1-en-7-yl)-4-methoxyquinoline-2-carboxylic acid], the EC50 in experiment [2] came to 185 nM. As to `O=C(O)c1cc(C(F)(F)F)cc2nc(N3CCC4(C=C(c5c(-c6c(Cl)cncc6Cl)noc5C5CC5)C4)CC3)ccc12` [Example 60, 2-(2-(5-Cyclopropyl-3-(3,5-dichloropyridin-4-yl)isoxazol-4-yl)-7-azaspiro[3.5]non-1-en-7-yl)-7-(trifluoromethyl)quinoline-5-carboxylic acid], the response in experiment [2] was half-maximal at 7.2 nM (EC50).

Compound `Cn1c(C(=O)O)cc2ccc(N3CCC4(C=C(c5c(-c6c(Cl)cccc6Cl)noc5C5CC5)C4)CC3)cc21` [Example 128, 6-(2-(5-Cyclopropyl-3-(2,6-dichlorophenyl)isoxazol-4-yl)-7-azaspiro[3.5]non-1-en-7-yl)-1-methyl-1H-indole-2-carboxylic acid] registered an EC50 in experiment [2] of 287 nM. Still for that read-out and setting: under `COc1cc(C(=O)O)nc2ccc(N3CCC4(C=C(c5c(-c6ccccc6C(F)(F)F)noc5C5CC5)C4)CC3)cc12` [Example 105, 6-(2-(5-Cyclopropyl-3-(2-(trifluoromethyl)phenyl)isoxazol-4-yl)-7-azaspiro[3.5]non-1-en-7-yl)-4-methoxyquinoline-2-carboxylic acid] stands 62 nM; under `Cn1cc(C(=O)O)c2cnc(N3CCC4(C=C(c5c(-c6c(Cl)cccc6Cl)noc5C5CC5)C4)CC3)cc21` [Example 117, 6-(2-(5-Cyclopropyl-3-(2,6-dichlorophenyl)isoxazol-4-yl)-7-azaspiro[3.5]non-1-en-7-yl)-1-methyl-1H-pyrrolo[3,2-c]pyridine-3-carboxylic acid], 139 nM; under `O=C(O)c1ccn2nc(N3CCC4(C=C(c5c(-c6ccccc6C(F)(F)F)noc5C5CC5)C4)CC3)ncc12` [Example 135, 2-(2-(5-Cyclopropyl-3-(2-(trifluoromethyl)phenyl)isoxazol-4-yl)-7-azaspiro[3.5]non-1-en-7-yl)pyrrolo[2,1-f][1,2,4]triazine-5-carboxylic acid], 87 nM.

In turn, `O=C(O)c1ccc2nc(N3CCC4(C=C(c5c(-c6c(Cl)cccc6Cl)noc5C5CC5)C4)CC3)ccc2c1` [Example 122, 2-(2-(5-Cyclopropyl-3-(2,6-dichlorophenyl)isoxazol-4-yl)-7-azaspiro[3.5]non-1-en-7-yl)quinoline-6-carboxylic acid] registered an EC50 in experiment [2] of 40 nM. Consider `CCNC(=O)c1cc(F)c2nc(N3CCC4(C=C(c5c(-c6c(Cl)cncc6Cl)noc5C5CC5)C4)CC3)sc2c1` [Example 200, 2-(2-(5-Cyclopropyl-3-(3,5-dichloropyridin-4-yl)isoxazol-4-yl)-7-azaspiro[3.5]non-1-en-7-yl)-N-ethyl-4-fluorobenzo[d]thiazole-6-carboxamide], for which, in experiment [2], a half-maximal effect (EC50) was put at 68 nM. Still for that read-out and setting: under `COc1cc(N2CCC3(C=C(c4c(-c5c(Cl)cncc5Cl)noc4C4CC4)C3)CC2)ncc1C(=O)O` [Example 76, 6-(2-(5-Cyclopropyl-3-(3,5-dichloropyridin-4-yl)isoxazol-4-yl)-7-azaspiro[3.5]non-1-en-7-yl)-4-methoxynicotinic acid] stands 2150 nM; under `CS(=O)(=O)NC(=O)c1cc(OC(F)F)c2cc(N3CCC4(C=C(c5c(-c6cnccc6C(F)(F)F)noc5C5CC5)C4)CC3)ccc2n1` [Example 187, 6-(2-(5-Cyclopropyl-3-(4-(trifluoromethyl)pyridin-3-yl)isoxazol-4-yl)-7-azaspiro[3.5]non-1-en-7-yl)-4-(difluoromethoxy)-N-(methylsulfonyl)quinoline-2-carboxamide], 63 nM; under `Cn1cc(C(=O)O)c2cnc(N3CCC4(C=C(c5c(-c6c(Cl)cccc6Cl)noc5C5CC5)C4)CC3)nc21` [Example 6, 2-(2-(5-Cyclopropyl-3-(2,6-dichlorophenyl)isoxazol-4-yl)-7-azaspiro[3.5]non-1-en-7-yl)-7-methyl-7H-pyrrolo[2,3-d]pyrimidine-5-carboxylic acid], 47 nM. On the same count and under the same terms, in the case of `Cc1cccc(Cl)c1-c1noc(C2CC2)c1C1=CC2(CCN(c3nc4c(F)cc(C(=O)O)cc4s3)CC2)C1` [Example 103, 2-(2-(3-(2-Chloro-6-methylphenyl)-5-cyclopropylisoxazol-4-yl)-7-azaspiro[3.5]non-1-en-7-yl)-4-fluorobenzo[d]thiazole-6-carboxylic acid] it was 19 nM; in that of `O=C(O)c1cc2ccc(N3CCC4(C=C(c5c(-c6c(Cl)cccc6Cl)noc5C5CC5)C4)CC3)cc2nn1` [Example 53, 7-(2-(5-Cyclopropyl-3-(2,6-dichlorophenyl)isoxazol-4-yl)-7-azaspiro[3.5]non-1-en-7-yl)cinnoline-3-carboxylic acid], 46 nM.

Take `Cn1nc(N2CCC3(C=C(c4c(-c5ccccc5C(F)(F)F)noc4C4CC4)C3)CC2)c2ccc(C(=O)O)cc21` [Example 134, 3-(2-(5-Cyclopropyl-3-(2-(trifluoromethyl)phenyl)isoxazol-4-yl)-7-azaspiro[3.5]non-1-en-7-yl)-1-methyl-1H-indazole-6-carboxylic acid]: in experiment [2], the 50% effective concentration (EC50) is 3310 nM. In experiment [2], `CS(=O)(=O)NC(=O)c1cc(OC(F)F)c2cc(N3CCC4(C=C(c5c(-c6c(Cl)cncc6Cl)noc5C5CC5)C4)CC3)ccc2n1` [Example 185, 6-(2-(5-Cyclopropyl-3-(3,5-dichloropyridin-4-yl)isoxazol-4-yl)-7-azaspiro[3.5]non-1-en-7-yl)-4-(difluoromethoxy)-N-(methylsulfonyl)quinoline-2-carboxamide] had an EC50 of 16 nM. In experiment [2], `Cn1cc(C(=O)O)c2ccc(N3CCC4(C=C(c5c(-c6ccccc6C(F)(F)F)noc5C5CC5)C4)CC3)cc21` [Example 141, 6-(2-(5-Cyclopropyl-3-(2-(trifluoromethyl)phenyl)isoxazol-4-yl)-7-azaspiro[3.5]non-1-en-7-yl)-1-methyl-1H-indole-3-carboxylic acid] returned an EC50 of 142 nM. As for `O=C(O)c1ccn2nc(N3CCC4(C=C(c5c(-c6c(Cl)cccc6Cl)noc5C5CC5)C4)CC3)ncc12` [Example 123, 2-(2-(5-Cyclopropyl-3-(2,6-dichlorophenyl)isoxazol-4-yl)-7-azaspiro[3.5]non-1-en-7-yl)pyrrolo[2,1-f][1,2,4]triazine-5-carboxylic acid], the EC50 in experiment [2] was determined as 40 nM. `COc1cc(C(=O)O)c2nc(N3CCC4(C=C(c5c(-c6c(Cl)cncc6Cl)noc5C5CC5)C4)CC3)sc2c1` [Example 70, 2-(2-(5-Cyclopropyl-3-(3,5-dichloropyridin-4-yl)isoxazol-4-yl)-7-azaspiro[3.5]non-1-en-7-yl)-6-methoxybenzo[d]thiazole-4-carboxylic acid] returned an EC50 in experiment [2] of 4400 nM.
